Assays:
[1] = target: T1, human recombinant 5-lipoxygenase (Homo sapiens, UniProt P09917); experiment: 5-Lipoxygenase enzyme assay; type: biochemical; conditions: 70 μM arachidonic acid, pH 7.4
T1 construct: purchased Cayman 60402
T1 sequence (P09917 1-674): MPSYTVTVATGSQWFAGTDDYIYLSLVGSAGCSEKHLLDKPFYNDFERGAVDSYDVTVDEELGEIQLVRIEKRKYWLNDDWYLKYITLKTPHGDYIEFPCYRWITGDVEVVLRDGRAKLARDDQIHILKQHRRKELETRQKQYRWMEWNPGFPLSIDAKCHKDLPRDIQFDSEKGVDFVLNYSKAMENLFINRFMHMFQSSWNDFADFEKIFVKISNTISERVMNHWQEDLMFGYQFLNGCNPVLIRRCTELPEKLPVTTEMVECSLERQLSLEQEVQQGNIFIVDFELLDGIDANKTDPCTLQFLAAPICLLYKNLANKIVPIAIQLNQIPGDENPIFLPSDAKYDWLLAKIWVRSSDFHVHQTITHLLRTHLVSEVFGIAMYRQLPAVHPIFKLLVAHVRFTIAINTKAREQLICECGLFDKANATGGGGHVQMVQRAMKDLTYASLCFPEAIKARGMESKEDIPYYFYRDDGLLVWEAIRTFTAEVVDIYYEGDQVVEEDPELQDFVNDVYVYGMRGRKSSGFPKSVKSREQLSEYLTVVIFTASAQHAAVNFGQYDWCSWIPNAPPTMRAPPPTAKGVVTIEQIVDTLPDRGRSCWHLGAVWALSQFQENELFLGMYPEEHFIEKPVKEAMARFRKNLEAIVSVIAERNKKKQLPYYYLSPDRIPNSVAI
Protocol: This procedure was used for measuring the enzymatic activity of human recombinant 5-lipoxygenase using a […] method based on the ferric oxidation of xylenol orange.
Human recombinant 5-lipoxygenase (Cayman Cat # 60402) was used in this assay. The test compound and/or vehicle was added to 0.5U 5-lipoxygenase in 50 mM Tris-HCl buffer, pH 7.4. The reaction was initiated by addition of 70 μM arachidonic acid in Tris-HCl buffer, pH 7.4, and terminated after a 10 minute incubation at room temperature by addition of FOX reagent (25 mM sulphuric acid, 100 μM xylenol orange, 100 μM iron (II) sulphate, methanol:water 9:1). The yellow color of acidified xylenol orange was converted to a blue color by the lipid hydroperoxide-mediated oxidation of Fe^2+ ions and the interaction of the resulting Fe^3+ ions with the dye. The complex was allowed to form during a 1 hour incubation at room temperature with shaking. Absorbance of the Fe^3+ complex was then measured at […] using a spectrophotometer.
Negative controls contained enzyme during the incubation step but substrate was not added until after the FOX reagent.
Compounds were screened at 5 concentrations in triplicate starting at 10 μM

[2] = system: LTB4 production in heparinized whole blood; experiment: Inhibition of LTB4 production in blood; type: cell-based, rat or mouse; conditions: 20 μM A23187, read-out: EC50, protection against LTB4
Protocol: The blood was collected in heparinized tubes or syringes to prevent clotting. Heparin was at 20 USP U/ml. About 3-5 ml of blood was collected per rat and about 0.5-0.75 ml per mouse. This assay required 200 μl/data point, therefore a 96 well plate requires 20 ml.
The Calcium ionophore A23187 was prepared as a 10 mM stock solution in DMSO and the test agent is prepared in DMSO so that <1 μl DMSO will be added to the well
200 μl blood per well were added in a round bottom 96 well clear plastic 96 well plate followed by the test agent. After 10 minutes incubation at 37° C., 5 μl of Calcium ionophore A23187 for a final concentration of 20 μM were added and mixed, and further incubated for 30 min. After 1000×g centrifugation to pellet blood cells, 20 μl plasma was carefully removed.
20 μl plasma were added to 80 μl methanol to precipitate protein and mixed. This was further incubated 10 min. at room temperature and centrifuged at 1000×g to pellet protein.
Following manufacturer's instructions, the commercially available EIA kit was used to subsequently measure the LTB4 production in the samples. The LTB4 levels produced in the vehicle control sample were then compared to those in which the test compound had been added. From this a percent inhibition of LTB4 production by each concentration of test compound was calculated and the IC50 for inhibition of LTB4 production for each test compound was determined.

[3] = system: LTB4 release from MPRO cell line; experiment: LTB4-cell assay; type: cell-based; conditions: Mus musculus; differentiated MPRO cells, 1 μM A23187, 1 hour; read-out: EC50, inhibition of LTB4
Protocol: This procedure was used for measuring the release of the leukotriene LTB4 from a neutrophil cell line using a competitive ELISA technique.
A mouse promyelocytic cell line (MPRO) was used in this assay. These cells are committed immature neutrophils that can be differentiated into mature neutrophils by treatment with 10 μM all-trans retinoic acid for 72 hours
Following 72 hours of differentiation, cells were stimulated with 1 μM of a calcium ionophore (A23187) in the presence or absence of test compound or vehicle for 1 hour at 37° C. After this time, supernatant was removed from the cells and the LTB4 levels were determined following manufacturer's instructions, using a Leukotriene B4 EIA kit from Cayman (Cat # 520111)
The negative controls were media samples from differentiated but unstimulated cells.
The compounds were screened at 5 concentrations in quadruplicate starting at 10 μM

[4] = system: dopaminergic neuronal cell line; experiment: High glutamate-induced oxidative stress assay (HGOS); type: cell-based; conditions: Mus musculus; 30 mM glutamate, 16 hrs; read-out: EC50, protection against HGOS cell injury and cell death
Description: Protection against redox stress can be further evaluated in cell culture using high glutamate induced oxidative stress (HGOS) in mouse dopaminergic cell lines. The cytotoxic effect of glutamate is not due to excitotoxicity, as this cell line is devoid of inotropic glutamate receptors. Rather, the glutamate-induced toxicity of dopaminergic cells is associated with an inhibition of cystine transport which subsequently leads to depletion of intracellular glutathione (GSH) levels (Murphy T. H., et al. Neuron 2, 1547-1558, 1989), activation of neuronal 12-lipoxygenase (Li, Y. et al., Neuron 19, 453-463, 1997), increased ROS production (Tan S. et al., J. Cell Biol. 141, 1423-1432, 1998) and elevated intracellular Ca^2+ (Li, Y. et al., see supra). Some molecules were measured for their ability to protect cells against glutamate-induced stress and the assay is detailed in Examples.
This procedure was used to induce high glutamate-induced oxidative stress (HGOS) in a dopaminergic neuronal cell line. Using this assay the potency and efficacy of test articles against HGOS neuronal cell injury and cell death was established in a high throughput manner.
The cells were seeded into 96-well plates at a density of 2000 per well and left to grow for 72 hours in a 33° C. incubator with 5% CO2 in air atmosphere. The passage number of the cells for each assay experiment were no later than p11 in order to minimize experimental variation.
All compounds were dissolved in DMEM-No Glu containing 1 mM glucose, 30 mM glutamate and 1×Pen/Strep. DMEM-No Glu with 1 mM glucose and 1×P/S was used as the negative control, DMEM-No Glucose with 1 mM glucose, […] was used as a positive control and 100 μM Glutathione was added to the positive control as a standard. All of the procedures for this involving the making and dilution of compounds were performed using aseptic conditions and with minimal light.
The plates were removed from the incubator and examined under the microscope for morphological appearance and density. Using an aseptic technique and an 8-channel aspirator the media was carefully removed from the cells and replaced with 200 μl of 1×HBSS. This was done as quickly as possible to prevent the cells drying out. The plates were then placed in the humidified 37° C. incubators of the Biomek 2000 Side Loader. Four plates were washed at a time so as to minimize the time that the cells were sitting in 1×HBSS prior to addition of the compound test solution.
The Beckman Biomek workstations were used to load the compounds and controls from the mother plates onto the cell plates that were prewashed with HBSS under sterile conditions. The plates were incubated in the upper HTS incubator at 37° C. in 5% CO2 for exactly 16 hrs. The following day, using the Beckman Biomek workstations, the plates were removed from the incubator. Using Cell Tracker Addition, the compounds were removed from the plates, washed once with […] of pre-warmed 1×HBSS and then 100 μL of 5 μM Cell Tracker Green was added to each well. The plates were incubated at 37° C. for 30 min to allow the dye to enter the cell and be cleaved by the esterases. After washing the cells twice with prewarmed 1×HBSS, the plates were read with the 485 excitation; 538 emission filter pair on a Fluoroskan.

[5] = system: ELAM (E-selectin) expression in endothelial cells; experiment: Cell-ELAM assay; type: cell-based; conditions: 10 μg/ml LPS and 100 pg/ml IL-1β, 6 hours
Description: In vitro cell-based assays for inflammation are well known in the art, for example e-selectin (also named Endothelial Leukocyte Adhesion Molecule or ELAM) or C-reactive protein (CRP). The ELAM assay measures in vitro activity of the test compounds in reducing expression of ELAM in activated endothelial cells. Briefly, endothelial cells are […] by adding known activators such as lipopolysaccharides, TNF or IL-1, alone or in some combination. Activated cells produce ELAM, which can be measured using, for example, an E-selectin monoclonal antibody-based ELISA assay. Similarly the CRP assay measures in vitro activity of test compounds in reducing expression of CRP in Human Hep3B epithelial cells. The activated cells produce CRP, which can be measured with a CRP ELISA assay.
Endothelial-Leukocyte Adhesion Molecule (ELAM), also known as E-selectin, was expressed on the surface of endothelial cells. In this assay, lipopolysaccharide (LPS) and IL-1β were used to stimulate the expression of ELAM; test agents were tested for their abilities to reduce this expression, in accordance with studies showing that reduction of leukocyte adhesion to endothelial cell surface was associated with decreased cellular damage (e.g., Takada, M., Et al., Transplantation 64: 1520-25, 1997; Steinberg, J. B., et al., J. Heart Lung Trans. 13:306-313, 1994).
Endothelial cells may be selected from any of a number of sources and cultured according to methods known in the art; including, for example, coronary artery endothelial cells, human brain microvascular endothelial cells (HBMEC; Hess, D. C., et al., Neurosci. Lett. 213(1): 37-40, 1996), or lung endothelial cells. Cells were conveniently cultured in 96-well plates. Cells were stimulated by adding a solution to each well containing 10 μg/ml LPS and 100 pg/ml IL-1β for 6 hours in the presence of test agent (specific concentrations and time may be adjusted depending on the cell type) Treatment buffer was removed and replaced with pre-warmed Fixing Solution® (100 μl/well) for 25 minutes at room temperature. Cells were then washed 3×, then incubated with Blocking Buffer (PBS+2% FBS) for 25 minutes at room temperature. Blocking Buffer containing Monoclonal E-Selectin Antibody (1:750, Sigma Catalog # S-9555) was added to each well. Plates were sealed and stored at 4° overnight. Plates were washed 4× with 160 μL Blocking Buffer per well. Second Antibody-HRP diluted 1:5000 in Blocking Buffer was then added (100 μL/well), and plates were incubated at room temperature (protected from light) for two hours. Plates were then washed 4× with Blocking Buffer before addition of 100 μL of ABTS Substrate solution at room temperature (Zymed, Catalog # 00-2024). Wells were allowed to develop for 35 minutes, before measurement at 402 nm in a Fluoroskan® Reader with shake program for 10 seconds. Positive results were recorded as a decrease in ELAM concentration in tested wells, as compared to control wells.

IC50 [1] [µM]	EC50 [5] [µM]	SMILES	EC50 [2] [µM]	EC50 [3] [µM]	EC50 [4] [µM]
–	≤ 30	CC1(CCCl)CCc2cc(O)c3c(c2O1)C1CCC3C1 (stereo not shown) [2-(2-Chloro-ethyl)-2-methyl-3,4,7,8,9,10-hexahydro-7,10-methano-2H-benzo[h]chromen-6-ol]	–	–	≤ 1
–	≤ 30	CC1(C)CCc2c(Br)c(O)c3c(c2O1)C1CCC3C1 (stereo not shown) [5-Bromo-2,2-dimethyl-3,4,7,8,9,10-hexahydro-7,10-methano-2H-benzo[h]chromen-6-ol]	–	–	≤ 1
≤ 5	–	Cc1c(O)c2c(c3c1CCC(C)(CCCCl)O3)C1CCC2CC1 (stereo not shown) [2-(3-Chloro-propyl)-2,5-dimethyl-3,4,7,8,9,10-hexahydro-7,10-ethano-2H-benzo[h]chromen-6-ol]	≤ 10	–	≤ 1

Further lines, the compound ahead of its results:

SMILES	IC50 [1] [µM]	EC50 [5] [µM]	EC50 [2] [µM]	EC50 [3] [µM]	EC50 [4] [µM]
CC1(C)CCc2cc(O)c3c(c2O1)C1C=CC3C1 (stereo not shown) [2,2-Dimethyl-3,4,7,10-tetrahydro-7,10-methano-2H-benzo[h]chromen-6-ol]	≤ 5	–	≤ 10	≤ 5	≤ 1
CC1(CCCSc2nc3ccccc3s2)CCc2cc(O)c3c(c2O1)C1CCC3C1 (stereo not shown) [2-[3-(Benzothiazol-2-ylsulfanyl)-propyl]-2-methyl-3,4,7,8,9,10-hexahydro-7,10-methano-2H-benzo[h]chromen-6-ol]	–	≤ 30	–	–	≤ 1
CC(C)=CCc1c(O)c2c(c3c1CCC(C)(C)O3)C1C=CC2CC1 (stereo not shown) [2,2-Dimethyl-5-(3-methyl-but-2-enyl)-3,4,7,10-tetrahydro-7,10-ethano-2H-benzo[h]chromen-6-ol]	≤ 5	≤ 30	–	–	≤ 1
CC1(CCCCl)CCc2cc(O)c3c(c2O1)C1CCC3CC1 (stereo not shown) [2-(3-Chloro-propyl)-2-methyl-3,4,7,8,9,10-hexahydro-7,10-ethano-2H-benzo[h]chromen-6-ol]	–	–	≤ 10	≤ 5	≤ 1

From patent US7875607B2, “7,8-bicycloakyl-chroman derivatives” (Ampere Life Sciences, Inc., priority 2004, dated 2011)
